# Active and inactive are the calls of the source. No cut-off for these calls is given here.
# System: MCF7/6
# Assay: Antiinvasive activity against human MCF7/6 cells precultured with 9 day old chick embryo heart tissue fragment at 10 micromol/l by chick heart invasion assay
# Type: functional, cell-based
# Conditions: not given
row,SMILES,Activity
1,COc1cc(C(=O)/C=C/c2ccc(F)cc2)cc(OC)c1OC,Active
2,COc1cc(C(=O)/C=C/C=C/c2ccc(F)cc2)cc(OC)c1OC,Active
3,O=C(/C=C/C=C/c1ccccc1)c1ccccc1,inactive
4,O=C(/C=C/c1ccccc1)/C=C/c1ccccc1,Active
5,O=C(/C=C/c1ccc(O)cc1)CC(=O)/C=C/c1ccc(O)cc1 [BISDEMETHOXYCURCUMIN],Active
6,O=C(/C=C/c1ccccc1)c1ccccc1 [CHALCONE],Active
7,O=C(/C=C/C=C/c1ccccc1)/C=C/c1ccccc1,Active
8,O=C(/C=C/C=C/c1ccccc1)c1ccc(Cl)cc1,inactive
9,COc1cc(/C=C/C(=O)CC(=O)/C=C/c2ccc(O)c(OC)c2)ccc1O [CURCUMIN],Active
10,COc1cc(C(=O)/C=C/C=C/c2ccccc2)cc(OC)c1OC,Active

# System: not listed separately
# Assay: Cytotoxicity against human MCF7/6 cells at 10 umol/l
# Type: cell-based
# Conditions: mcf7/6, 10 µM
row,SMILES,Activity
1,COc1cc(C(=O)/C=C/c2ccc(F)cc2)cc(OC)c1OC,Non-toxic
2,COc1cc(C(=O)/C=C/C=C/c2ccc(F)cc2)cc(OC)c1OC,Toxic
3,O=C(/C=C/C=C/c1ccccc1)c1ccc(F)cc1,Toxic
4,O=C(/C=C/C=C/c1ccccc1)c1ccccc1,Toxic
5,O=C(/C=C/c1ccc(O)cc1)CC(=O)/C=C/c1ccc(O)cc1 [BISDEMETHOXYCURCUMIN],Toxic
6,COc1cc(C(=O)/C=C/C=C/c2ccccc2)cc(OC)c1OC,Toxic

# System: MCF7/6
# Assay: Antiinvasive activity against human MCF7/6 cells precultured with 9 day old chick embryo heart tissue fragment at 100 micromol/l by chick heart invasion assay
# Type: functional, cell-based
# Conditions: not given
row,SMILES,Activity
1,O=C(/C=C/C=C/c1ccccc1)c1ccc(F)cc1,Active
2,O=C(/C=C/C=C/c1ccccc1)c1ccccc1,Active
3,O=C(/C=C/c1ccccc1)/C=C/c1ccccc1,Active
4,O=C(/C=C/C=C/c1ccccc1)/C=C/c1ccccc1,Active
5,O=C(/C=C/C=C/c1ccccc1)c1ccc(Cl)cc1,Active
6,COc1cc(C(=O)/C=C/C=C/c2ccccc2)cc(OC)c1OC,Active

# System: not listed separately
# Assay: Cytotoxicity against human MCF7/6 cells at 100 umol/l
# Type: cell-based
# Conditions: mcf7/6, 100 µM
row,SMILES,Activity
1,O=C(/C=C/C=C/c1ccccc1)c1ccc(F)cc1,Toxic
2,O=C(/C=C/C=C/c1ccccc1)c1ccccc1,Toxic
3,O=C(/C=C/c1ccccc1)/C=C/c1ccccc1,Toxic
4,O=C(/C=C/C=C/c1ccccc1)/C=C/c1ccccc1,Toxic
5,COc1cc(C(=O)/C=C/C=C/c2ccccc2)cc(OC)c1OC,Toxic

# System: MCF7/6
# Assay: Antiinvasive activity against human MCF7/6 cells precultured with 9 day old chick embryo heart tissue fragment at 0.1 micromol/l by chick heart invasion assay
# Type: functional, cell-based
# Conditions: not given
row,SMILES,Activity
1,COc1cc(C(=O)/C=C/c2ccc(F)cc2)cc(OC)c1OC,Active
2,COc1cc(C(=O)/C=C/C=C/c2ccc(F)cc2)cc(OC)c1OC,inactive
3,O=C(/C=C/C=C/c1ccccc1)c1ccc(F)cc1,inactive
4,O=C(/C=C/C=C/c1ccccc1)c1ccccc1,inactive
5,O=C(/C=C/c1ccccc1)/C=C/c1ccccc1,inactive
6,O=C(/C=C/c1ccc(O)cc1)CC(=O)/C=C/c1ccc(O)cc1 [BISDEMETHOXYCURCUMIN],inactive
7,O=C(/C=C/C=C/c1ccccc1)/C=C/c1ccccc1,inactive
8,O=C(/C=C/C=C/c1ccccc1)c1ccc(Cl)cc1,inactive
9,COc1cc(/C=C/C(=O)CC(=O)/C=C/c2ccc(O)c(OC)c2)ccc1O [CURCUMIN],inactive
10,COc1cc(C(=O)/C=C/C=C/c2ccccc2)cc(OC)c1OC,inactive

# System: MCF7/6
# Assay: Antiinvasive activity against human MCF7/6 cells precultured with 9 day old chick embryo heart tissue fragment at 1 micromol/l by chick heart invasion assay
# Type: functional, cell-based
# Conditions: not given
row,SMILES,Activity
1,COc1cc(C(=O)/C=C/c2ccc(F)cc2)cc(OC)c1OC,Active
2,COc1cc(C(=O)/C=C/C=C/c2ccc(F)cc2)cc(OC)c1OC,inactive
3,O=C(/C=C/C=C/c1ccccc1)c1ccc(F)cc1,Active
4,O=C(/C=C/C=C/c1ccccc1)c1ccccc1,inactive
5,O=C(/C=C/c1ccccc1)/C=C/c1ccccc1,Active
6,O=C(/C=C/c1ccc(O)cc1)CC(=O)/C=C/c1ccc(O)cc1 [BISDEMETHOXYCURCUMIN],inactive
7,O=C(/C=C/c1ccccc1)c1ccccc1 [CHALCONE],inactive
8,O=C(/C=C/C=C/c1ccccc1)/C=C/c1ccccc1,Active
9,O=C(/C=C/C=C/c1ccccc1)c1ccc(Cl)cc1,Active
10,COc1cc(/C=C/C(=O)CC(=O)/C=C/c2ccc(O)c(OC)c2)ccc1O [CURCUMIN],inactive
11,COc1cc(C(=O)/C=C/C=C/c2ccccc2)cc(OC)c1OC,inactive

# System: not listed separately
# Assay: Antiinvasive activity against human MCF7/6 cells precultured with 9 day old chick embryo heart tissue fragment assessed as lowest concentration by chick heart invasion assay
# Type: functional
# Conditions: not given
row,SMILES,logMIC
1,COc1cc(C(=O)/C=C/c2ccc(F)cc2)cc(OC)c1OC,-2
2,COc1cc(C(=O)/C=C/C=C/c2ccc(F)cc2)cc(OC)c1OC,1
3,C(=C\c1ccccc1)/c1ccccc1,-1
4,COc1cc(/C=C/c2ccc(F)cc2)cc(OC)c1OC,0
5,O=C(/C=C/C=C/c1ccccc1)c1ccc(F)cc1,0
6,O=C(/C=C/C=C/c1ccccc1)c1ccccc1,2
7,O=C(/C=C/c1ccccc1)/C=C/c1ccccc1,0
8,O=C(/C=C/c1ccc(O)cc1)CC(=O)/C=C/c1ccc(O)cc1 [BISDEMETHOXYCURCUMIN],1
9,O=C(/C=C/c1ccccc1)c1ccccc1 [CHALCONE],1
10,O=C(/C=C/C=C/c1ccccc1)/C=C/c1ccccc1,0
11,O=C(/C=C/C=C/c1ccccc1)c1ccc(Cl)cc1,3
12,COc1cc(/C=C\c2ccc(F)cc2)cc(OC)c1OC,1
13,COc1cc(/C=C/C(=O)CC(=O)/C=C/c2ccc(O)c(OC)c2)ccc1O [CURCUMIN],1
14,COc1cc(C(=O)/C=C/C=C/c2ccccc2)cc(OC)c1OC,1

# System: MCF7/6
# Assay: Antiinvasive activity against human MCF7/6 cells precultured with 9 day old chick embryo heart tissue fragment at 0.01 micromol/l by chick heart invasion assay
# Type: functional, cell-based
# Conditions: not given
row,SMILES,Activity
1,COc1cc(C(=O)/C=C/c2ccc(F)cc2)cc(OC)c1OC,Active
2,O=C(/C=C/C=C/c1ccccc1)c1ccc(F)cc1,inactive
3,O=C(/C=C/c1ccccc1)/C=C/c1ccccc1,inactive
4,O=C(/C=C/C=C/c1ccccc1)/C=C/c1ccccc1,inactive
5,COc1cc(C(=O)/C=C/C=C/c2ccccc2)cc(OC)c1OC,inactive
